This is an account of results in article PMC10374545, “A small molecule inhibitor of PTP1B and PTPN2 enhances T cell anti-tumor immunity” (Nature Communications, 2023).

What is called IC50 is the concentration at which inhibition is half-maximal. A high value points to a need for much substance.

One experiment addresses T1, PTPN2 (Homo sapiens, UniProt P17706).
T1 construct: PTPN2, residues 1-387; made in house; host or cells: E. coli BL21(DE3)
T1 sequence (P17706 1-387 isoform P17706-2): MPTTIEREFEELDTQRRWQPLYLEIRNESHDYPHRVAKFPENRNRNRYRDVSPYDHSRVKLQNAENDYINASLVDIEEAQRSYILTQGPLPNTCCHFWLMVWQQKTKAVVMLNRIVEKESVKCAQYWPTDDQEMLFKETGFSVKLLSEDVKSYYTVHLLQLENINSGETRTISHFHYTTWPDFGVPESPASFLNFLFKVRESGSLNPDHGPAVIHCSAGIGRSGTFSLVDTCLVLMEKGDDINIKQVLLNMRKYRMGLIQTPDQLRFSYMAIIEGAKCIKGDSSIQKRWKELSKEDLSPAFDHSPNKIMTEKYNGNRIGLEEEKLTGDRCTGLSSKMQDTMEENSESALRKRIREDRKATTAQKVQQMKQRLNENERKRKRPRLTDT
As to the kind of experiment: PTP inhibition assay with DiFMUP substrate (IC50). The note with it: DiFMUP 10 μM as substrate. The format is biochemical. How it is done: E. coli BL21(DE3) (Novagen) was used as an expression host and the induction of protein expression was carried out in LB media with 1 mM IPTG at 18 °C overnight. Cell pellets were stored at −80 °C for subsequent protein purification.
Protein purification of PTPs for enzymatic assays was conducted at 4 °C. Frozen cell pellets were lysed by sonication in 40 ml cold lysis buffer (50 mM Tris-HCl, pH 8.0, 150 mM NaCl, 5 mM imidazole, and 1 mM PMSF) per litre cell pellet. Cell lysates were clarified by centrifugation using a Beckman JA-18 rotor for 15 min at 5308 x g. The supernatant was incubated with HisPur Ni-NTA resin (Thermo Scientific) for 2 h and then packed onto a column and washed with 50 resin volume of buffer A (50 mM Tris-HCl, pH 8.0, 500 mM NaCl, 5 mM imidazole). The His-tagged proteins were eluted with Buffer B (50 mM Tris-HCl, pH=8.0, 500 mM NaCl, 300 mM imidazole,). Pooled His-protein-containing fractions were concentrated, loaded onto a HiLoad 26/600 Superdex 75 column (GE Healthcare Biosciences) and eluted with storage buffer (50 mM Tris-HCl, pH 8.0, 150 mM NaCl, 1 mM DTT, 10% glycerol). […] The protein was aliquoted and stored at −80 °C.
(§1) The PTP kinetic assay was modified from previous reported protocols[73],[74]. […] The fluorescence signal was measured using a CLARIOstar Plus Microplate Spectrophotometer (BMG Labtech) using excitation and emission wavelengths of 340 nm and 450 nm, respectively. […]
(§2) To determine the mode of inhibition, the reactions were initiated by the addition of enzyme (final concentration for PTP1B and PTPN2 was 0.05 nM) to the reaction mixtures (0.2 ml) containing various concentrations of DiFMUP with different concentrations of the inhibitor. […] The fluorescence signal was measured using a CLARIOstar Plus Microplate Spectrophotometer (BMG Labtech) using excitation and emission wavelength of 340 nm and 450 nm, respectively. […]

A further experiment has as its target T2, PTP1B (Homo sapiens, UniProt P18031).
T2 construct: PTP1B, residues 1-321; made in house; host or cells: E. coli BL21(DE3)
T2 sequence (P18031 1-321): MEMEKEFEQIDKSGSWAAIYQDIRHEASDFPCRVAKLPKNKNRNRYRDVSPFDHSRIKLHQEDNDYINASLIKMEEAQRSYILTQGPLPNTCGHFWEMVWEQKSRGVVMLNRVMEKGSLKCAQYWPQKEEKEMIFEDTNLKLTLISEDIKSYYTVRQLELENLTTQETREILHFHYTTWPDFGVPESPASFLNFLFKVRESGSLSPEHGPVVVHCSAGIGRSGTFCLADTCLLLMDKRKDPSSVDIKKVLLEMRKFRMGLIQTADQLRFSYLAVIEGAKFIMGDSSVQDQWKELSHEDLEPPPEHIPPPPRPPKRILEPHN
As to the kind of experiment: PTP inhibition assay with DiFMUP substrate (IC50). Format: biochemical. How it is done:
Cell pellets were stored at −80 °C for subsequent protein purification.
Protein purification of PTPs for enzymatic assays was conducted at 4 °C. Frozen cell pellets were lysed by sonication in 40 ml cold lysis buffer (50 mM Tris-HCl, pH 8.0, 150 mM NaCl, 5 mM imidazole, and 1 mM PMSF) per litre cell pellet. […] The supernatant was incubated with HisPur Ni-NTA resin (Thermo Scientific) for 2 h and then packed onto a column and washed with 50 resin volume of buffer A (50 mM Tris-HCl, pH 8.0, 500 mM NaCl, 5 mM imidazole). The His-tagged proteins were eluted with Buffer B (50 mM Tris-HCl, pH=8.0, 500 mM NaCl, 300 mM imidazole,). […]
as §1, §2

In the case of `CC(C)CCN[C@@H]1CCc2cc(O)c(N3CC(=O)NS3(=O)=O)c(F)c2C1` [ABBV-CLS-484], the half-inhibitory concentration (IC50) against PTPN2 was 1.6 ± 0.06 nM; against PTP1B (DiFMUP 10 μM as substrate), 1.84 ± 0.09 nM. Also, the “IC50 values relative to those of Compound 182” value on PTP1B (PTP1B and PTPN2, same conditions) is recorded as “approximately 3 fold”.
